According to patent publication US20240174680A1, “CDK2 INHIBITORS AND METHODS OF USING THE SAME” (Cedilla Therapeutics, Inc., priority 2021, published 2024):

Target: CDK2/Cyclin E1 (Homo sapiens, UniProt P24941)
Experiment: CDK2/Cyclin E1 Caliper LabChip EZ Reader mobility shift assay
Type: biochemical
Parameters: purchased Eurofins 14-475
Settings: read-out: Caliper Assay (CDK2/CCNE1): IC50
In short: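 Mobility-shift kinase assay: compound titrations preincubated 30 min with enzyme and ATP, reaction started with 5-FAM-QSPKKG-CONH2 peptide. Final 2.5 nM CDK2/Cyclin E1, 100 μM ATP, 1.5 μM peptide, HEPES pH 7.5; stopped with EDTA after 100 min. IC50 from four-parameter fit of normalized conversion ratio.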

IC50	SMILES
10 to 100 nM	C[C@@H](OCC1CCCCC1)C(NC(=O)[C@@H]1CN(C(=O)c2cncs2)CC12CN(C(=O)[C@H]1CC1(C)C)C2)c1nnco1 (stereo in doubt) [I-415, (S)—N-((1S,2R)-2-(cyclohexylmethoxy)-1-(1,3,4-oxadiazol-2-yl)propyl)-2-((S)-2,2-dimethylcyclopropane-1-carbonyl)-6-(thiazole-5-carbonyl)-2,6-diazaspiro[3.4]octane-8-carboxamide]
> 10000 nM	COC(=O)C1(NC(=O)[C@H]2CN(C(=O)c3cnn(Cc4ccccc4)c3)CC23CN(C(=O)[C@H]2CC2(C)C)C3)COC1 [I-142A]
> 10000 nM	COC(=O)[C@H](CO)NC(=O)[C@H]1CN(C(=O)c2cnn(Cc3ccccc3)c2)CC12CN(C(=O)[C@H]1CC1(C)C)C2 [I-209B]
> 10000 nM	CC1(C)C[C@@H]1C(=O)N1CC2(CN(C(=O)c3cnn(Cc4ccccc4)c3)C[C@@H]2C(=O)NCCOCc2ccccc2)C1 [I-96B]
1000 to 10000 nM	CC1(C)C[C@@H]1C(=O)N1CC2(CN(C(=O)c3cnn(Cc4ccccc4)c3)C[C@@H]2C(=O)Nc2cccc(-c3ccccc3)c2)C1 [I-63B]
> 10000 nM	CNC(=O)[C@@H](NC(=O)[C@H]1CN(C(=O)c2cncs2)CC12CN(C(=O)[C@H]1CC1(C)C)C2)[C@@H](C)OCc1ccccc1 [I-24B]
1000 to 10000 nM	C[C@@H](OCc1ccccc1)[C@H](NC(=O)[C@H]1CN(C(=O)c2cnn(Cc3ccccc3)c2)CC12CN(C(=O)[C@H]1CC1(C)C)C2)C(N)=O [I-176B]
> 10000 nM	CC1(C)C[C@@H]1C(=O)N1CC2(CN(C(=O)c3cnn(Cc4ccccc4)c3)C[C@H]2C(=O)N2CCCC(Cc3ccccc3)C2)C1 (some centres unmarked) [I-91A]
> 10000 nM	CNC(=O)[C@@H](NC(=O)[C@H]1CN(C(=O)c2cnn(Cc3ccccc3)c2)CC12CN(C(=O)CC(F)(F)F)C2)[C@@H](C)OCc1ccccc1 [I-87B]
≤ 10 nM	C[C@@H](OCC1CCCCC1)[C@H](NC(=O)[C@@H]1CN(C(=O)c2cnn(Cc3ccccc3)c2)CC12CN(C(=O)[C@H]1CC1(C)C)C2)C(=O)N1CCC(CN)CC1 [I-219]
10 to 100 nM	C[C@@H](OCc1ccccc1)[C@H](NC(=O)[C@@H]1CN(C(=O)c2cnn(Cc3ccccc3)c2)CC12CN(C(=O)[C@H]1CC1(C)C)C2)C(N)=O [I-176A]
> 10000 nM	CNC(=O)[C@@H](NC(=O)[C@H]1CN(C(=O)c2cnn(C)c2)CC12CN(C(=O)[C@H]1CC1(C)C)C2)[C@@H](C)OCc1ccccc1 [I-33B]
≤ 10 nM	C[C@@H](OCC1CCCCC1)[C@H](NC(=O)C1CN(C(=O)c2cnn(Cc3ccccc3)c2)CC12CN(C(=O)[C@H]1CC1(C)C)C2)C(=O)N1CCCCC1 (some centres unmarked) [I-194 mixture]
100 to 1000 nM	CNC(=O)[C@@H](NC(=O)[C@H]1CN(C(=O)c2cnn(Cc3ccccc3)c2)CC12CN(C(=O)[C@H]1CC1(C)C)C2)[C@@H](C)OCC1CCC(C(F)(F)F)CC1 (some centres unmarked) [I-141B]
100 to 1000 nM	CNC(=O)[C@@H](NC(=O)[C@@H]1CN(C(=O)c2c[nH]c(=O)s2)CC12CN(C(=O)[C@H]1CC1(C)C)C2)[C@@H](C)OCC1CCCCC1 [I-184]
> 10000 nM	CC1(C)C[C@@H]1C(=O)N1CC2(CN(C(=O)c3cnn(Cc4ccccc4)c3)C[C@H]2C(=O)N[C@@H]2CCN(C3CC3)C2=O)C1 [I-259]
≤ 10 nM	C[C@@H](OCc1ccccc1)[C@H](NC(=O)[C@@H]1CN(C(=O)c2cnn(Cc3ccccc3)c2)CC12CN(C(=O)[C@H]1CC1(C)C)C2)C(=O)N1CCC(F)(F)CC1 [I-280]
1000 to 10000 nM	CNC(=O)[C@@H](NC(=O)[C@@H]1CN(C(=O)c2cnn(Cc3ccccc3)c2)CC12CN(C(=O)[C@H]1CC1(C)C)C2)[C@@H](C)OCc1ccncc1 [I-244]
100 to 1000 nM	C[C@H](OC1CCN(C(=O)[C@@H]2CN(C(=O)c3cnn(Cc4ccccc4)c3)CC23CN(C(=O)[C@H]2CC2(C)C)C3)CC1)c1ccccc1 [I-275]

IC50	SMILES
> 10000 nM	CC(C)(O)C(NC(=O)[C@@H]1CN(C(=O)c2cnco2)CC12CN(C(=O)[C@H]1CC1(C)C)C2)c1cccc(C2CCOCC2)n1 (some centres unmarked) [I-436]
≤ 10 nM	C[C@@H](OCC12CCC(CC1)OC2)[C@H](NC(=O)[C@@H]1CN(C(=O)c2cncs2)CC12CN(C(=O)[C@H]1CC1(C)C)C2)C(=O)N1CCC(C)(C)CC1 [I-452]
10 to 100 nM	CNC(=O)[C@@H](NC(=O)[C@@H]1CN(C(=O)c2cnn(Cc3ccccc3)c2)CC12CN(C(=O)[C@H]1CC1(C)C)C2)[C@@H](C)OCC1CCC(C(F)(F)F)CC1 (some centres unmarked) [I-141A]
> 10000 nM	COC(=O)[C@@H](CO)NC(=O)[C@@H]1CN(C(=O)c2cnn(Cc3ccccc3)c2)CC12CN(C(=O)[C@H]1CC1(C)C)C2 [I-187A]
1000 to 10000 nM	Cc1ccc(CNC(=O)[C@@H]2CN(C(=O)c3cnn(Cc4ccccc4)c3)CC23CN(C(=O)[C@H]2CC2(C)C)C3)cc1 [I-363]
10 to 100 nM	C[C@@H](OCC1CCC(F)(F)CC1)[C@H](NC(=O)[C@@H]1CN(C(=O)c2cn[nH]c2)CC12CN(C(=O)C1(C(F)(F)F)CC1)C2)C(=O)N1CCOCC1 [I-302]
> 10000 nM	CNC(=O)[C@@H](NC(=O)[C@H]1CN(C(=O)c2cnc(C(F)(F)F)s2)CC12CN(C(=O)[C@H]1CC1(C)C)C2)[C@@H](C)OCC1CCCCC1 [I-161B]
10 to 100 nM	CNC(=O)[C@@H](NC(=O)[C@@H]1CN(C(=O)c2cnn(CC3CCOCC3)c2)CC12CN(C(=O)[C@H]1CC1(C)C)C2)[C@@H](C)OCC1CCCCC1 [I-121A]
> 10000 nM	CNC(=O)[C@@H](CO)NC(=O)C1CN(C(=O)c2cnn(Cc3ccccc3)c2)CC12CN(C(=O)[C@H]1CC1(C)C)C2 (some centres unmarked) [I-261]
10 to 100 nM	CNC(=O)[C@@H](NC(=O)[C@H]1CN(C(=O)c2cnn(Cc3ccccc3)c2)CC12CN(C(=O)[C@H]1CC1(C)C)C2)[C@@H](C)OCCC1CCCCC1 [I-125B]
> 10000 nM	CC1(C)C[C@@H]1C(=O)N1CC2(CN(C(=O)c3cnn(Cc4ccccc4)c3)C[C@H]2C(=O)NC2CCNC(=O)C2)C1 (some centres unmarked) [I-223]
10 to 100 nM	CNC(=O)[C@@H](NC(=O)[C@@H]1CN(C(=O)c2sc(C)nc2C)CC12CN(C(=O)[C@H]1CC1(C)C)C2)[C@@H](C)OCC1CCCCC1 [I-213A]
100 to 1000 nM	CC1(C)C[C@@H]1C(=O)N1CC2(CN(C(=O)c3cnn(Cc4ccccc4)c3)C[C@H]2C(=O)Nc2ccc(Cc3ccccc3)nc2)C1 [I-139, (S)-6-(1-benzyl-1H-pyrazole-4-carbonyl)-N-(6-benzylpyridin-3-yl)-2-((S)-2,2-dimethylcyclopropane-1-carbonyl)-2,6-diazaspiro[3.4]octane-8-carboxamide]
1000 to 10000 nM	CNC(=O)[C@@H](NC(=O)[C@H]1CN(C(=O)c2cncs2)CC12CN(C(=O)[C@H]1CC1(C)C)C2)[C@@H](C)OCC1CCCCC1 [I-129B]
≤ 10 nM	COC[C@H]1CCCN(C(=O)[C@@H](NC(=O)[C@@H]2CN(C(=O)c3cncs3)CC23CN(C(=O)C(C)(C)C2CC2)C3)[C@@H](C)OC(C)C2CCC(F)(F)CC2)C1 (some centres unmarked) [I-399]
≤ 10 nM	CNC(=O)[C@@H](NC(=O)[C@@H]1CN(C(=O)c2cncs2)CC12CN(C(=O)[C@H]1CC1(C)C)C2)[C@@H](C)OCC1CCCC2(CC2)C1 (some centres unmarked) [I-370]
10 to 100 nM	C[C@@H](OCC1(C(F)(F)F)CC1)[C@H](NC(=O)[C@H]1CN(C(=O)c2cncs2)CC12CN(C(=O)[C@H]1CC1(C)C)C2)C(=O)N1CCCCC1 [I-292]
100 to 1000 nM	C[C@@H](OCC1CCOCC1)[C@H](NC(=O)[C@@H]1CN(C(=O)c2cncs2)CC12CN(C(=O)C(C)(C)C1CC1)C2)C(C)(C)O [I-341]

SMILES	IC50
C[C@@H](OCc1ccc(C(F)(F)F)cc1)[C@H](NC(=O)[C@@H]1CN(C(=O)c2cncs2)CC12CN(C(=O)[C@H]1CC1(C)C)C2)C(=O)N1C2CCC1COC2 [I-470]	≤ 10 nM
